Laboratory results as given in PMC6274262, “Synthesis of Novel Symmetrical 1,4-Disubstituted 1,2,3-Bistriazole Derivatives via ‘Click Chemistry’ and Their Biological Evaluation” (Molecules, 2016).
pIC50: −log10 of the molar value.

Assays:
[1] = molecular target: T1, Electric eel acetyl-cholinesterase enzyme (AchE, Type-VI-S; EC 3.1.1.7) (Electrophorus electricus, UniProt O42275); assay: biochemical; conditions: mean ± S.D. of three independent experiments; Tris-HCl pH 8.00, 412 nm
T1 construct: purchased Sigma-Aldrich Type-VI-S
Experimental: Firstly, all of the compounds stock solution in DMF (1 × 10^−3 M) were prepared and then five different concentrations were prepared from stock solution in buffer (Tris-HCI pH 8.00) for experiments. Briefly 50 µL of 50 mM Tris-HCl buffer (pH 8.00), 125 µL of 3 mM DTNB (in buffer), 25 µL of 0.2 U/mL AChE and 25 µL of sample dissolved in buffer and incubated for 15 min. at 25 °C. Fifteen minutes later, 25 µL of 15 mM acetyl thiocholine iodide were added and incubated 5 min. at room temperature. The reaction was initiated by the addition of acetylcholine iodide. The hydrolysis of this substrate was monitored by the formation of the yellow 5-thio-2-nitrobenzoate anion as a result of the reaction DTNB with thiocholine, catalized by enzyme at a wave length of 412 nm using a 96-well microplate reader (Multiskan Go UV-spectrophotometer, Thermo Fisher Scientific Oy Ratastie 2, Vantaa, Finland).
Inhibition of AChE was calculated by the comparison of reaction rates of the samples relative to the blank sample (DMF in phosphate buffer pH = 8) using the Equation (1) where Acontrol is the activity of enzyme without test sample and Asample is the activity of enzyme with test sample: (1) Scavenging effects (%)=[(Acontrol−Asample)/Acontrol]×100
The experiments were carried out in triplicate and IC50 values were examined.

[2] = DPPH radical scavenging assay; conditions: 0.1 mM methanolic DPPH, 30 min in the dark, 517 nm; mean ± S.D., triplicate
Experimental: Some 1,2,3-triazole compounds are known to act either as inhibitors of free radical production or as radical scavengers. Therefore, the potential antioxidant property of the new 1,2,3-trizole compounds was evaluated by determining their DPPH and SOD radical scavenging ability. DPPH is a stable free radical that accepts an electron or hydrogen radical to become a stable species. Due to its odd electron, DPPH gives a strong absorption band at 517 nm. Antioxidants are suitable reducing agents and neutralize the free radicals by pairing the DPPH odd electron with a hydrogen atom, and the DPPH solution turns yellow, observed as the decrease in absorbance at 517 nm.
The compounds were tested for in vitro antioxidant activities by the 2,2-diphenyl-1-picrylhydrazyl (DPPH) free radical scavenging assay method. The total volume of the assay mixtures containing methanolic DPPH solution (0.1 mM) and different concentrations of samples was 1 mL. After incubation in the dark at room temperature for 30 min., absorbance of the samples (Asample) was measured at 517 nm. Assay mixture without compound was used as control (control absorbance, Acontrol). All experiments were carried out in triplicate and results were expressed as the mean ±standard deviation (S.D.). Butylatedhydroxyanisole (BHA) were used as the reference compound. Free radical scavenging effect was calculated using Equation (1).

[3] = Superoxide radical scavenging assay (NBT photo reduction method); conditions: pH 7.8, 30 °C, 10 min, 560 nm, mean ± S.D., triplicate
Experimental: Superoxide scavenging activity of the compounds and reference were tested in a non-enzymatic superoxide radical (O2^−•) generation assay using a modified spectrophotometrical nitro blue tetrazolium (NBT) photo reduction method. The total volume of the assay mixtures containing riboflavin (2 μM), methionine (13 mM), NBT ([…]), EDTA (0.1 mM), and the test samples (50 mM phosphate buffer, pH = 7.8) was 1 mL. After illuminating with a fluorescent lamp at 30 °C for 10 min., the absorbance of the samples (Asample) was measured at 560 nm. Assay mixture without the compound was used as control (control absorbance, Acontrol). All experiments were carried out in triplicate and results were expressed as the mean ± standard deviation (S.D.). Free O2^−• radical scavenging effect was calculated using Equation (1).

[4] = system: C. albicans ATCC 60193; assay: Agar-well diffusion antimicrobial screening; format: cell-based, Candida albicans
[5] = system: S. cerevisiae RSKK 251; assay: Agar-well diffusion antimicrobial screening; format: cell-based, Saccharomyces cerevisiae

T1 sequence (O42275 24-633): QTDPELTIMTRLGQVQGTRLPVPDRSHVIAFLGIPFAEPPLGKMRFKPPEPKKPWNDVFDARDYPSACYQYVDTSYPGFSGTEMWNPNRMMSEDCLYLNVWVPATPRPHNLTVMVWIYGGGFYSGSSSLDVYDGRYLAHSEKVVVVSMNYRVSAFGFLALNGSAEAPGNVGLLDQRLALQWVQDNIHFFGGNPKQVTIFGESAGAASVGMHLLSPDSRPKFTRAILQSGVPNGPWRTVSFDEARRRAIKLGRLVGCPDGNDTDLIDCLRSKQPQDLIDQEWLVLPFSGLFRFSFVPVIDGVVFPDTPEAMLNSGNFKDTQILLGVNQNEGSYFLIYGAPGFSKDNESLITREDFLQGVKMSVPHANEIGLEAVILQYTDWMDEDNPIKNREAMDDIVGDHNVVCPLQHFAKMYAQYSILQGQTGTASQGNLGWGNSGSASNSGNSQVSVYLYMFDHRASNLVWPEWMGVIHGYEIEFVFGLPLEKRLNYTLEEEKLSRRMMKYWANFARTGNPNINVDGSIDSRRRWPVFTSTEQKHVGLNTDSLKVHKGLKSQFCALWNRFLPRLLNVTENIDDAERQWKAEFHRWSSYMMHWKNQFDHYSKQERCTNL

Compound | pIC50 [1] | DPPH IC50 [2] | SOD IC50 [3] | Inhibition Zone Ca [4] [mm] | Inhibition Zone Sc [5]
CC(=O)c1ccc(OCc2cn(CCCCCCCCCCn3cc(COc4ccc(C(C)=O)cc4)nn3)nn2)cc1 [Compound 2f, 1,1′-((((Decane-1,10-diylbis(1H-1,2,3-triazole-1,4-diyl))bis(methylene))bis(oxy))bis(4,1-phenylene))bis-(ethan-1-one)] | 4.29 | 167.51 (±0.05) µg/mL | 88.15 (±0.06) µg/mL |  | 
O=Cc1ccc(OCc2cn(CCCCCCCCCCn3cc(COc4ccc(C=O)cc4)nn3)nn2)cc1 [Compound 4f, 4,4′-(((Decane-1,10-diylbis(1H-1,2,3-triazole-1,4-diyl))bis(methylene))bis(oxy))dibenzaldehyde] | 4.20 | 210.33 (±0.08) µg/mL | 93.47 (±0.09) µg/mL |  | 
CC(=O)c1ccc(OCc2cn(CCCCCCCCn3cc(COc4ccc(C(C)=O)cc4)nn3)nn2)cc1 [Compound 2e, 1,1′-((((Octane-1,8-diylbis(1H-1,2,3-triazole-1,4-diyl))bis(methylene))bis(oxy))bis(4,1-phenylene))bis(ethan-1-one)] | 4.18 | 222.16 (±0.07) µg/mL | 131.43 (±0.06) µg/mL |  | 
COc1cc(C=O)ccc1OCc1cn(CCCn2cc(COc3ccc(C=O)cc3OC)nn2)nn1 [Compound 5a] | 4.13 | 150.03 (±0.08) µg/mL | 126.2 (±0.07) µg/mL |  | 
CC(=O)c1ccc(OCc2cn(CCCCCCn3cc(COc4ccc(C(C)=O)cc4)nn3)nn2)cc1 [Compound 2d, 1,1′-((((Hexane-1,6-diylbis(1H-1,2,3-triazole-1,4-diyl))bis(methylene))bis(oxy))bis(4,1-phenylene))bis(ethan-1-one)] | 4.20 | 152.84 (±0.05) µg/mL | 154.79 (±0.06) µg/mL | 6 | 
COc1cc(C=O)ccc1OCc1cn(CCCCCn2cc(COc3ccc(C=O)cc3OC)nn2)nn1 [Compound 5c] | 4.16 | 192.46 (±0.11) µg/mL | 145.68 (±0.11) µg/mL |  | 
CC(=O)c1ccc(OCc2cn(CCCCn3cc(COc4ccc(C(C)=O)cc4)nn3)nn2)cc1 [Compound 2b, 1,1′-((((Butane-1,4-diylbis(1H-1,2,3-triazole-1,4-diyl))bis(methylene))bis(oxy))bis(4,1-phenylene))bis(ethan-1-one)] | 4.28 | 158.72 (±0.05) µg/mL | 107.54 (±0.07) µg/mL |  | 
COc1cc(C=O)ccc1OCc1cn(CCCCn2cc(COc3ccc(C=O)cc3OC)nn2)nn1 [Compound 5b] | 4.21 | 154.51 (±0.07) µg/mL | 109.17 (±0.10) µg/mL |  | 
O=Cc1ccc(OCc2cn(CCCCCCn3cc(COc4ccc(C=O)cc4)nn3)nn2)cc1 [Compound 4d, 4,4′-(((Hexane-1,6-diylbis(1H-1,2,3-triazole-1,4-diyl))bis(methylene))bis(oxy))dibenzaldehyde] | 4.23 | 204.31 (±0.11) µg/mL | 82.77 (±0.11) µg/mL |  | 
O=Cc1ccc(OCc2cn(CCCCCn3cc(COc4ccc(C=O)cc4)nn3)nn2)cc1 [Compound 4c, 4,4′-(((Pentane-1,5-diylbis(1H-1,2,3-triazole-1,4-diyl))bis(methylene))bis(oxy))dibenzaldehyde] | 4.08 | 227.38 (±0.07) µg/mL | 60.32 (±0.07) µg/mL | 6 | 
COc1cc(C(C)=O)ccc1OCc1cn(CCCCCn2cc(COc3ccc(C(C)=O)cc3OC)nn2)nn1 [Compound 3c] | 4.12 | 188.45 (±0.11) µg/mL | 284.10 (±0.07) µg/mL |  | 
COc1cc(C=O)ccc1OCc1cn(CCCCCCCCn2cc(COc3ccc(C=O)cc3OC)nn2)nn1 [Compound 5e] | 4.21 | 221.57 (±0.06) µg/mL | 188.84 (±0.08) µg/mL |  | 
CC(=O)c1ccc(OCc2cn(CCCCCn3cc(COc4ccc(C(C)=O)cc4)nn3)nn2)cc1 [Compound 2c, 1,1′-((((Pentane-1,5-diylbis(1H-1,2,3-triazole-1,4-diyl))bis(methylene))bis(oxy))bis(4,1-phenylene))bis(ethan-1-one)] | 4.17 | 175.65 (±0.06) µg/mL | 147.36 (±0.05) µg/mL | 6 | 
CC(=O)c1ccc(OCc2cn(CCCn3cc(COc4ccc(C(C)=O)cc4)nn3)nn2)cc1 [Compound 2a, 1,1′-((((Propane-1,3-diylbis(1H-1,2,3-triazole-1,4-diyl))bis(methylene))bis(oxy))bis(4,1-phenylene))bis(ethan-1-one)] | 4.19 | 155.49 (±0.08) µg/mL | 45.12 (±0.04) µg/mL |  | 
O=Cc1ccc(OCc2cn(CCCCCCCCn3cc(COc4ccc(C=O)cc4)nn3)nn2)cc1 [Compound 4e, 4,4′-(((Octane-1,8-diylbis(1H-1,2,3-triazole-1,4-diyl))bis(methylene))bis(oxy))dibenzaldehyde] | 4.20 | 192.04 (±0.09) µg/mL | 88.86 (±0.09) µg/mL | 6 | 
COc1cc(C(C)=O)ccc1OCc1cn(CCCn2cc(COc3ccc(C(C)=O)cc3OC)nn2)nn1 [Compound 3a] | 4.20 | 141.57 (±0.08) µg/mL | 120.53 (±0.04) µg/mL | 6 | 
COc1ccc(O)c(C(C)(C)C)c1 [BHA, Butylatedhydroxyanisole, reference compound] |  | 98.56 (±0.08) µg/mL |  |  | 
O=Cc1ccc(OCc2cn(CCCCn3cc(COc4ccc(C=O)cc4)nn3)nn2)cc1 [Compound 4b, 4,4′-(((Butane-1,4-diylbis(1H-1,2,3-triazole-1,4-diyl))bis(methylene))bis(oxy))dibenzaldehyde] | 4.13 | 125.05 (±0.08) µg/mL | 121.74 (±0.08) µg/mL | 6 | 
COc1cc(C(C)=O)ccc1OCc1cn(CCCCCCCCCCn2cc(COc3ccc(C(C)=O)cc3OC)nn2)nn1 [Compound 3f] | 4.10 | 207.57 (±0.09) µg/mL | 98.35 (±0.06) µg/mL |  | 
4-((1-(10-(4-((4-Formyl-2-methoxyphenoxy)methyl)-1H-1,2,3-triazol-1-yl)decyl)-1H-1,2,3-triazol-4-yl)-methoxy)-2-methoxybenzaldehyde [Compound 5f] |  |  |  |  | -
COc1cc(C(C)=O)ccc1OCc1cn(CCCCn2cc(COc3ccc(C(C)=O)cc3OC)nn2)nn1 [Compound 3b, 1-(4-((1-(4-(4-((4-Acetyl-2-methoxyphenoxy)methyl)-1H-1,2,3-triazol-1-yl)butyl)-1H-1,2,3-triazol-4-yl)-methoxy)-2-methoxyphenyl)ethan-1-one] | 4.24 | 113.63 (±0.05) µg/mL | 51.37 (±0.07) µg/mL |  | 
O=Cc1ccc(OCc2cn(CCCn3cc(COc4ccc(C=O)cc4)nn3)nn2)cc1 [Compound 4a, 4,4′-(((Propane-1,3-diylbis(1H-1,2,3-triazole-1,4-diyl))bis(methylene))bis(oxy))dibenzaldehyde] | 4.20 | 192.02 (±0.12) µg/mL | 55.67 (±0.08) µg/mL |  | 
COc1cc(C=O)ccc1OCc1cn(CCCCCCn2cc(COc3ccc(C=O)cc3OC)nn2)nn1 [Compound 5d] | 4.15 | 191.39 (±0.08) µg/mL | 157.14 (±0.07) µg/mL |  | 
